# In patent publication US20260041640A1 (INCYCLIX BIO, LLC, priority 2023, published 2026):
# Several values for one entry are separate records, joined by “and”; a condition that tells them apart may be missing. Identical values can stand only once. Like-named read-outs stand apart in the source and are kept apart here.
# Test: First-in-human clinical study: plasma and whole blood PK of INX-315 (oral QD, ASD tablet)
# Assay type: in vivo
# Source text: All INX-315 tablets were taken at approximately the same time(s) each day.
# Samples will also be collected pre-dose on Cycle 1 Days 2, 8, 16, and Day 22, and pre-dose on Day 1 of each subsequent cycle.
# Standard non-compartmental PK parameters were estimated.
# Geometric mean and geometric CV % will be included in the summary statistics.
# PK parameters will be summarized descriptively by dosing cohort. AUC and Cmax values will also be presented in scatter plots. Dose proportionality will be assessed for AUC and Cmax using a power model. The 90% CI of the slope for each PK parameter will be estimated from the model and presented in a summary table.
# Cohort 1 enrollment of 6 subjects dosed at 100 mg oral QD was completed in October of 2023.
# Patients were upgraded to the 200 mg QD dose level and PK/PD plasma parameters were measured (FIG. 18A).
# Patients were administered the 200 mg QD and 300 mg QD dose levels and PK/PD plasma parameters were measured.
# [1] = plasma, 100 mg QD cohort, Day 1, individual subjects
# [2] = plasma, 100 mg QD cohort, Day 1, median
# [3] = plasma, 100 mg QD cohort, Day 15, individual subjects
# [4] = plasma, 100 mg QD cohort, Day 15, median
# [5] = plasma, 100 mg QD, Day 1, individual patients
# [6] = plasma, 100 mg QD, Day 15, individual patients
# [7] = plasma, 200 mg QD, Day 1, Cohort 2
# [8] = plasma, 200 mg QD, Day 1, individual subjects
# [9] = plasma, 200 mg QD, Day 15, Cohort 2
# [10] = plasma, 200 mg QD, Day 15, individual subjects
# [11] = plasma, 300 mg QD cohort, Day 1, individual subjects
# [12] = plasma, 300 mg QD cohort, Day 1, median
# [13] = plasma, 300 mg QD cohort, Day 15, individual subjects
# [14] = whole blood, 100 mg QD, Day 1, individual patients
# [15] = whole blood, 100 mg QD, Day 15, individual patients
smiles,measurement,setting,value
NS(=O)(=O)c1ccc(Nc2ncc3cc4n(c3n2)C2(CCCCC2)C(=O)NN4)cc1 [INX-315],Tmax,"human, plasma, po, 100 mg, plasma, 100 mg QD cohort, Day 1, median, read-out: Tmax, Median",4 h
same,half-life,"human, plasma, po, 100 mg, plasma, 100 mg QD cohort, Day 1, median, read-out: t1/2, Median (converted)",15.6 h
same,AUC(0-t),"human, plasma, po, 100 mg, plasma, 100 mg QD cohort, Day 15, geometric mean, read-out: AUClast, Geometric Mean",3.29 µg·h/mL
same,Cmax,"human, plasma, po, 100 mg, plasma, 100 mg QD cohort, Day 15, geometric mean, read-out: Cmax, Geometric Mean",0.211 µg/mL
same,half-life,"human, plasma, po, 100 mg, plasma, 100 mg QD cohort, Day 15, individual subjects, read-out: t1/2 (converted)",17.6 h
same,AUC(0-t),"human, plasma, po, 100 mg, plasma, 100 mg QD cohort, Day 15, median, read-out: AUClast, Median",3.12 µg·h/mL
same,Cmax,"human, plasma, po, 100 mg, plasma, 100 mg QD cohort, Day 15, median, read-out: Cmax, Median",0.217 µg/mL
same,Tmax,"human, plasma, po, 100 mg, plasma, 100 mg QD cohort, Day 15, median, read-out: Tmax, Median",6 h
same,half-life,"human, whole blood, oral, 100 mg, preliminary data, first two patients, 100 mg QD, read-out: t1/2 (converted)",≥ 15 h
same,AUC(0-t),"human, whole blood, oral, 100 mg, whole blood, 100 mg QD, Day 1, Cohort 1 (Table 28), read-out: AUClast, geometric mean",34.7 µg·h/mL
same,Cmax,"human, whole blood, oral, 100 mg, whole blood, 100 mg QD, Day 1, Cohort 1 (Table 28), read-out: Cmax, geometric mean",2.28 µg/mL
same,Tmax,"human, whole blood, oral, 100 mg, whole blood, 100 mg QD, Day 1, Cohort 1 (Table 28), read-out: Tmax, median",6 h
same,half-life,"human, whole blood, oral, 100 mg, whole blood, 100 mg QD, Day 1, Cohort 1 (Table 28), read-out: t1/2, geometric mean (converted)",17.9 h
same,AUC,"human, whole blood, oral, 100 mg, whole blood, 100 mg QD, Day 1 observed, mean of first two patients, read-out: AUC",50.6 µg·h/mL
same,Cmax,"human, whole blood, oral, 100 mg, whole blood, 100 mg QD, Day 1 observed, mean of first two patients, read-out: Cmax",3 µg/mL
same,AUC(0-t),"human, whole blood, oral, 100 mg, whole blood, 100 mg QD, Day 15, Cohort 1 (Table 28), read-out: AUClast, median",62.7 µg·h/mL
same,Cmax,"human, whole blood, oral, 100 mg, whole blood, 100 mg QD, Day 15, Cohort 1 (Table 28), read-out: Cmax, median",3.58 µg/mL
same,Tmax,"human, whole blood, oral, 100 mg, whole blood, 100 mg QD, Day 15, Cohort 1 (Table 28), read-out: Tmax, median",6 h
same,half-life,"human, whole blood, oral, 100 mg, whole blood, 100 mg QD, Day 15, individual patients, read-out: t1/2 (converted)",21.6 h
same,AUC,"human, whole blood, oral, 100 mg, whole blood, 100 mg QD, Day 15 observed, mean of first two patients, read-out: AUC",116 µg·h/mL
same,Cmax,"human, whole blood, oral, 100 mg, whole blood, 100 mg QD, Day 15 observed, mean of first two patients, read-out: Cmax",5.44 µg/mL
same,AUC,"human, whole blood, oral, 200 mg, Cohort 2 (200 mg QD), Day 1, individual subjects, read-out: AUC Whole Blood",96.7 µg·h/mL
same,AUC,"human, whole blood, oral, 300 mg, Cohort 3 (300 mg QD), Day 1, individual subjects, read-out: AUC Whole Blood",134 µg·h/mL
same,AUC,"human, whole blood, oral, 300 mg, Cohort 3 (300 mg QD), Day 15, Tlast = 6 hours, read-out: AUC Whole Blood",43.9 µg·h/mL
same,AUC,"human, whole blood, oral, 300 mg, Cohort 3 (300 mg QD), Day 15, individual subjects, read-out: AUC Whole Blood",86.4 µg·h/mL
same,"Clast, geometric mean","plasma, 100 mg QD cohort, Day 1, geometric mean",0.0487 µg/mL
same,AUClast,[1],2.41 µg·h/mL and 1.84 µg·h/mL and 3.3 µg·h/mL and 2.16 µg·h/mL and 3.36 µg·h/mL and 0.633 µg·h/mL
same,Clast,[1],0.0423 µg/mL and 0.0507 µg/mL and 0.0852 µg/mL and 0.0319 µg/mL and 0.114 µg/mL and 0.02 µg/mL
same,Cmax,[1],0.32 µg/mL and 0.109 µg/mL and 0.197 µg/mL and 0.0438 µg/mL
same,Tlast,[1],24 h
same,"Clast, median",[2],0.0465 µg/mL
same,"Tlast, Median",[2],24 h
same,"Clast, geometric mean","plasma, 100 mg QD cohort, Day 15, geometric mean",0.0906 µg/mL
same,AUClast,[3],6.84 µg·h/mL and 1.93 µg·h/mL and 1.64 µg·h/mL and 5.7 µg·h/mL
same,Clast,[3],0.188 µg/mL and 0.0654 µg/mL and 0.0631 µg/mL and 0.154 µg/mL and 0.0512 µg/mL
same,Cmax,[3],0.424 µg/mL and 0.0964 µg/mL and 0.344 µg/mL
same,Tlast,[3],24 h
same,t1/2,[3],16.0 h
same,"Clast, median",[4],0.0654 µg/mL
same,"Tlast, Median",[4],24 h
same,dose proportionality of exposure (AUC),"plasma, 100 mg QD versus 200 mg QD",dose-proportional increase in exposure (or greater)
same,dose proportionality of exposure,"plasma, 100 mg QD versus 200 mg QD and 300 mg QD",dose-proportional increase in exposure (or greater)
same,"Clast, geometric mean","plasma, 100 mg QD, Day 1, Cohort 1 (Table 27)",0.0614 µg/mL
same,AUClast,[5],3.41 µg·h/mL and 2.16 µg·h/mL and 2.51 µg·h/mL and 1.99 µg·h/mL
same,Clast,[5],0.119 µg/mL and 0.0863 µg/mL and 0.0339 µg/mL and 0.0439 µg/mL and 0.057 µg/mL
same,Cmax,[5],0.194 µg/mL and 0.197 µg/mL and 0.179 µg/mL and 0.326 µg/mL and 0.119 µg/mL
same,Tlast,[5],24 h
same,t1/2,[5],8.88 h and 11.5 h and 16.7 h
same,AUClast,[6],5.92 µg·h/mL
same,Clast,[6],0.199 µg/mL and 0.155 µg/mL
same,Cmax,[6],0.358 µg/mL
same,Tlast,[6],24 h
same,t1/2,[6],15.2 h
same,"Clast, geometric mean",[7],0.223 µg/mL
same,"Clast, median",[7],0.261 µg/mL
same,"Tlast, Median",[7],24 h
same,AUClast,[8],7.3 µg·h/mL and 11.3 µg·h/mL and 19.1 µg·h/mL and 4.54 µg·h/mL
same,Clast,[8],0.212 µg/mL and 0.291 µg/mL and 0.487 µg/mL and 0.0697 µg/mL and 0.261 µg/mL
same,Cmax,[8],0.444 µg/mL and 0.8 µg/mL and 1.14 µg/mL and 0.305 µg/mL
same,Tlast,[8],24 h
same,"Clast, geometric mean",[9],0.263 µg/mL
same,"Clast, median",[9],0.32 µg/mL
same,"Tlast, Median",[9],24 h
same,AUClast,[10],6.56 µg·h/mL and 14.3 µg·h/mL and 18.1 µg·h/mL and 13.2 µg·h/mL
same,Clast,[10],0.0888 µg/mL and 0.324 µg/mL and 0.521 µg/mL and 0.317 µg/mL
same,Cmax,[10],1.23 µg/mL and 0.997 µg/mL and 0.758 µg/mL
same,Tlast,[10],24 h
same,t1/2,[10],10.5 h and 14.3 h
same,"Clast, geometric mean","plasma, 300 mg QD cohort, Day 1, geometric mean",0.213 µg/mL
same,AUClast,[11],7.59 µg·h/mL and 11 µg·h/mL and 8.08 µg·h/mL and 11.5 µg·h/mL
same,Clast,[11],0.148 µg/mL and 0.135 µg/mL and 0.303 µg/mL and 0.219 µg/mL and 0.331 µg/mL
same,Cmax,[11],0.55 µg/mL and 0.49 µg/mL and 0.812 µg/mL
same,Tlast,[11],24 h
same,t1/2,[11],16.2 h
same,"Clast, median",[12],0.219 µg/mL
same,"Tlast, Median",[12],24 h
same,AUClast,[13],4.43 µg·h/mL
same,Clast,[13],0.0968 µg/mL and 0.359 µg/mL
same,Cmax,[13],0.84 µg/mL
same,Tlast,[13],24 h and 8 h
same,Tmax,[13],0.5 h
same,t1/2,[13],5.80 h
same,factor by which observed AUC exceeded the model,"whole blood, 100 mg QD, Day 1",9 ×
same,"Clast, geometric mean","whole blood, 100 mg QD, Day 1, Cohort 1 (Table 28)",0.956 µg/mL
same,AUClast,[14],60.5 µg·h/mL and 40.6 µg·h/mL and 37.8 µg·h/mL and 32.5 µg·h/mL and 13.4 µg·h/mL and 43.6 µg·h/mL
same,Clast,[14],1.84 µg/mL and 1.02 µg/mL and 1.18 µg/mL and 0.719 µg/mL and 0.502 µg/mL and 0.954 µg/mL
same,Cmax,[14],3.43 µg/mL and 2.57 µg/mL and 2.11 µg/mL and 2.71 µg/mL and 0.805 µg/mL and 3.47 µg/mL
same,Tlast,[14],24 h
same,t1/2,[14],22.4 h and 13.9 h and 20.5 h and 14.5 h and 27.4 h and 12.8 h
same,Cmin,"whole blood, 100 mg QD, Day 1 observed, mean of first two patients",1.43 µg/mL
same,"Clast, median","whole blood, 100 mg QD, Day 15, Cohort 1 (Table 28)",1.67 µg/mL
same,AUClast,[15],117 µg·h/mL and 31.4 µg·h/mL
same,Clast,[15],3.22 µg/mL and 1.67 µg/mL and 0.891 µg/mL
same,Cmax,[15],7.29 µg/mL and 1.82 µg/mL
same,Tlast,[15],24 h
same,t1/2,[15],18.3 h
same,Cmin,"whole blood, 100 mg QD, Day 15 observed, mean of first two patients",2.445 µg/mL
same,Total Area,"whole blood, 100 mg QD, d 1, Patients 1 and 2",60740 and 41732
same,Total Area,"whole blood, 100 mg QD, d 15, Patients 1 and 2",118285 and 65180
